Source: patent publication US11180504B2 (ORCHID PHARMA LTD., priority 2016, dated 2021)
≈ marks a conversion by molar mass, not a printed value.

How the values were obtained:
[1] = test system: carbapenem sensitive Escherichia coli; experiment: MIC by broth micro-dilution (CLSI), carbapenem sensitive E. coli; type: cell-based; conditions: Escherichia coli, ATCC25922, ESBL −ve E. coli ATCC25922; read-out: MIC
[2] = test system: carbapenemase producing K. pneumoniae; experiment: MIC by broth micro-dilution (CLSI), carbapenemase producing K. pneumoniae; type: cell-based, Klebsiella pneumoniae; conditions: Klebsiella pneumoniae, ATCCBAA1705, KPC-2 K. pneumoniae ATCC BAA-1705; read-out: MIC
[3] = test system: carbapenem sensitive Pseudomonas aeruginosa; experiment: MIC by broth micro-dilution (CLSI), carbapenem sensitive P. aeruginosa; type: cell-based; conditions: Pseudomonas aeruginosa, ATCC27853, Meropenem susceptible P. aeruginosa ATCC27853; read-out: MIC
[4] = test system: methicillin-sensitive Staphylococcus aureus; experiment: MIC by broth micro-dilution (CLSI), methicillin-sensitive S. aureus; type: cell-based; conditions: Staphylococcus aureus, ATCC 29213 / MSSA, MSSA S. aureus ATCC29213; read-out: MIC

SMILES	MIC [1] [µg/mL]	MIC [2] [µg/mL]	MIC [3] [µg/mL]	MIC [4] [µg/mL]
C[C@@H](NC(=O)Cn1cnnn1)[C@H]1C(=O)N2C(C(=O)O)=C(S[C@@H]3CN[C@H](C(=O)N4C[C@@H]5NC(=N)N[C@@H]5C4)C3)[C@H](C)[C@H]12 [Example 580, (4R,5S,6R)-6-((R)-1-(2-(1H-tetrazol-1-yl)acetamido)ethyl)-3-((3S,5S)-5-((3aR,6aS)-2-iminooctahydropyrrolo[3,4-d]imidazole-5-carbonyl)pyrrolidin-3-ylthio)-methyl-7-oxo-1-azabicyclo[3.2.0]hept-2-ene-2-carboxylic acid]	0.25 (≈ 0.436 µM)	1 (≈ 1.74 µM)	0.5 (≈ 0.872 µM)	2 (≈ 3.49 µM)
C[C@@H](NC(=O)Cn1cnnn1)[C@H]1C(=O)N2C(C(=O)O)=C(S[C@@H]3CN[C@H](C(=O)N4CC5CC(NC(=N)N)CC5C4)C3)[C@H](C)[C@H]12 (stereo partly drawn) [Example 581, (4R,5S,6R)-6-((R)-1-(2-(1H-tetrazol-yl)acetamido)ethyl)-3-((3S,5S)-5-(5-guanidinooctahydroyclopenta[c]pyrrole-2-carbonyl)pyrrolidin-3-ylthio)-4-methyl-7-oxo-1-azabicyclo[3.2.0]hept-2-ene-2-carboxylic acid]	0.5 (≈ 0.812 µM)	8 (≈ 13 µM)	64 (≈ 104 µM)	8 (≈ 13 µM)
C[C@@H](NC(=O)Cn1cnnn1)[C@H]1C(=O)N2C(C(=O)O)=C(S[C@@H]3CN[C@H](C(=O)N4CC[C@H](NC(=N)N)C4)C3)[C@H](C)[C@H]12 [Example 582, (4R,5S,6R)-6-((R)-1-(2-(1H-tetrazol-1-yl)acetamido)-ethyl)-3-((3S,5S)-5-((S)-3-guanidino-pyrrolidine-1-carbonyl)pyrrolidin-3-ylthio)-4-methyl-7-oxo-1-azabicyclo[3.2.0]hept-ene-2-carboxylic acid]	0.25 (≈ 0.434 µM)	2 (≈ 3.47 µM)	0.5 (≈ 0.869 µM)	2 (≈ 3.47 µM)
C[C@@H](NC(=O)Cn1cnnn1)[C@H]1C(=O)N2C(C(=O)O)=C(S[C@@H]3CN[C@H](C(=O)N4C[C@@H](CO)[C@H](NC(=N)N)C4)C3)[C@H](C)[C@H]12 [Example 583, (4R,5S,6R)-6-((R)-1-(2-(1H-tetrazol-1-yl)acetamido)ethyl)-3-((3S,5S)-5-((3S,4R)-3-guanidino-4-(hydroxymethyl)pyrrolidine-1-carbonyl)pyrrolidin-3-ylthio)-4-methyl-7-oxo-1-azabicyclo[3.2.0]hept-2-ene-2-carboxylic acid]	0.03 (≈ 0.0495 µM)	1 (≈ 1.65 µM)	0.5 (≈ 0.826 µM)	1 (≈ 1.65 µM)
C[C@@H](NC(=O)Cn1cnnn1)[C@H]1C(=O)N2C(C(=O)O)=C(S[C@@H]3CN[C@H](C(=O)N4C[C@@H](CO)[C@H](N)C4)C3)[C@H](C)[C@H]12 [Example 584, (4R,5S,6R)-6-((R)-1-(2-(1H-tetrazol-1-yl)acetamido)ethyl)-3-((3S,5S)-5-((3S,4R)-3-amino-4-(hydroxymethyl)pyrrolidine-1-carbonyl)pyrrolidin-3-ylthio)-4-methyl-7-oxo-1-azabicyclo[3.2.0]hept-2-ene-2-carboxylic acid]	0.25 (≈ 0.444 µM)	1 (≈ 1.77 µM)	1 (≈ 1.77 µM)	2 (≈ 3.55 µM)
C[C@@H](NC(=O)Cn1cnnn1)[C@H]1C(=O)N2C(C(=O)O)=C(S[C@@H]3CN[C@H](C(=O)N4CC5C[C@@H](NC(=N)N)C[C@]5(CO)C4)C3)[C@H](C)[C@H]12 (stereo partly drawn) [Example 585, (4R,5S,6R)-6-((R)-1-(2-(1H-tetrazol-1-yl)acetamido)ethyl)-3-((3S,5S)-5-((3aR,5R)-5-guanidino-3a-(hydroxymethyl)octahydrocyclopenta[c]pyrrole-2-carbonyl)pyrrolidin-3-ylthio)-4-methyl-7-oxo-1-azabicyclo[3.2.0]hept-2-ene-2-carboxylic acid]	0.125 (≈ 0.194 µM)	1 (≈ 1.55 µM)	4 (≈ 6.19 µM)	2 (≈ 3.1 µM)
